Laboratory results: patent US20090299044A1 (priority 2006, published 2009)
Bridge positions count the residues as written; N and C are the ends. Square brackets hold non-standard residues; d marks the D form. Peptide text beside a SMILES is read from it. 1Nal = N[C@@H](Cc1cccc2ccccc12)C(=O)O

How the values were obtained:
human Kv1.1 (HEK293) = biological target: T1, human Kv1.1 (HEK293) (Homo sapiens, UniProt Q09470); test: cell-based
T1 construct: expressed in transfected cells; host or cells: HEK293

human Kv1.3 (CHO) = biological target: T2, human Kv1.3 (CHO) (Homo sapiens, UniProt P22001); test: cell-based
T2 construct: expressed in transfected cells; host or cells: CHO
T2 sequence (P22001 whole entry): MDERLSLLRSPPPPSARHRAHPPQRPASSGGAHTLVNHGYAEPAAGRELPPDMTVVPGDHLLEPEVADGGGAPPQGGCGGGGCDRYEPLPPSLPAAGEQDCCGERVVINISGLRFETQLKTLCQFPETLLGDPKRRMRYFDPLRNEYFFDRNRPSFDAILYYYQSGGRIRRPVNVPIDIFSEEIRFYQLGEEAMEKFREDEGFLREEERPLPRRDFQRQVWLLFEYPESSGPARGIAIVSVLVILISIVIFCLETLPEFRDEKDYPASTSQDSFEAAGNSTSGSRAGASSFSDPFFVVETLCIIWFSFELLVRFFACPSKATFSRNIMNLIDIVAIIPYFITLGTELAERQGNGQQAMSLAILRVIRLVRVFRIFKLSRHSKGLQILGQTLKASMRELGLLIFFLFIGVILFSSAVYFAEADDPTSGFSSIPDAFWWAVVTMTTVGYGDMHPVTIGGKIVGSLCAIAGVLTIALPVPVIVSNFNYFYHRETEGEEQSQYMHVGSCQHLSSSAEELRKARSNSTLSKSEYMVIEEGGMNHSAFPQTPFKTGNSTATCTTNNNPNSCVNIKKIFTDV

T1 sequence (Q09470 whole entry): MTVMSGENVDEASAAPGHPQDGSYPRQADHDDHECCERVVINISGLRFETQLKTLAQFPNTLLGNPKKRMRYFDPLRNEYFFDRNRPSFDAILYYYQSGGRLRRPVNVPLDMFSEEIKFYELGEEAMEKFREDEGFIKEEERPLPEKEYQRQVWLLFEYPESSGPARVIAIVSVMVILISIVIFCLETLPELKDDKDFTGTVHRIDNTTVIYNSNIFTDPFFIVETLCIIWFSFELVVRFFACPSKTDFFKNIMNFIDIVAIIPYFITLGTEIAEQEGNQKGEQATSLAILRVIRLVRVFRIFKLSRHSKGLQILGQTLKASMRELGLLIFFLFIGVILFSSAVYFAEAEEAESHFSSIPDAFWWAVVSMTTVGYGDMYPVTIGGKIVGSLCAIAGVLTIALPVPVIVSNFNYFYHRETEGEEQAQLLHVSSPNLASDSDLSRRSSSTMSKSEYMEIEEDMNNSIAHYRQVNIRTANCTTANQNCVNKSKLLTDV

Compound	IC50 (human Kv1.1 (HEK293))	IC50 (human Kv1.3 (CHO))
CC[C@H](C)[C@@H]1NC(=O)[C@H](C)NC(=O)[C@@H](NC(=O)[C@H](CCCCN)NC(=O)[C@@H](NC(=O)[C@H](CC(N)=O)NC(=O)[C@@H](NC(=O)[C@@H](NC(=O)[C@@H](NC(=O)CN)C(C)C)[C@@H](C)CC)[C@@H](C)CC)C(C)C)CSSC[C@@H]2NC(=O)[C@H](CCCCN)NC(=O)CNC(=O)[C@H](Cc3ccccc3)NC(=O)[C@H](CCCNC(=N)N)NC(=O)[C@H](CCSC)NC(=O)CNC(=O)[C@H](C)NC(=O)[C@H](CCCCN)NC(=O)[C@H](CCCCN)NC(=O)[C@@H]3CSSC[C@@H](C(=O)N[C@H](C(=O)N4CCC[C@H]4C(=O)N[C@@H](CCCCN)C(=O)O)[C@@H](C)O)NC(=O)[C@H](Cc4c[nH]cn4)NC(=O)[C@H](CSSC[C@H](NC(=O)[C@H](CCC(N)=O)NC(=O)[C@H](CCCNC(=N)N)NC(=O)[C@H](CO)NC1=O)C(=O)N[C@@H](CC(C)C)C(=O)N[C@@H](CCC(=O)O)C(=O)N1CCC[C@H]1C(=O)N3)NC(=O)[C@H](CCCCN)NC(=O)CNC(=O)[C@H](CC(N)=O)NC(=O)[C@H](CCSC)NC2=O [K9A] (H-GVIINVKCAISRQCLEPCKKAGMRFGKCMNGKCHCTPK-OH; disulfide 8-28, 14-33, 18-35)	0.0406 nM	0.166 nM
CC[C@H](C)[C@@H]1NC(=O)[C@H](CCC(=O)O)NC(=O)[C@@H](NC(=O)[C@H](CCCCN)NC(=O)[C@@H](NC(=O)[C@H](CC(N)=O)NC(=O)[C@@H](NC(=O)[C@@H](NC(=O)[C@@H](NC(=O)CN)C(C)C)[C@@H](C)CC)[C@@H](C)CC)C(C)C)CSSC[C@@H]2NC(=O)[C@H](CCCCN)NC(=O)CNC(=O)[C@H](Cc3ccccc3)NC(=O)[C@H](CCCNC(=N)N)NC(=O)[C@H](CCSC)NC(=O)CNC(=O)[C@H](C)NC(=O)[C@H](CCCCN)NC(=O)[C@H](CCCCN)NC(=O)[C@@H]3CSSC[C@@H](C(=O)N[C@H](C(=O)N4CCC[C@H]4C(=O)N[C@@H](CCCCN)C(=O)O)[C@@H](C)O)NC(=O)[C@H](Cc4c[nH]cn4)NC(=O)[C@H](CSSC[C@H](NC(=O)[C@H](CCC(N)=O)NC(=O)[C@H](CCCNC(=N)N)NC(=O)[C@H](CO)NC1=O)C(=O)N[C@@H](CC(C)C)C(=O)N[C@@H](CCC(=O)O)C(=O)N1CCC[C@H]1C(=O)N3)NC(=O)[C@H](CCCCN)NC(=O)CNC(=O)[C@H](CC(N)=O)NC(=O)[C@H](CCSC)NC2=O [K9E] (H-GVIINVKCEISRQCLEPCKKAGMRFGKCMNGKCHCTPK-OH; disulfide 8-28, 14-33, 18-35)	0.111 nM	0.0318 nM
CC[C@H](C)[C@@H]1NC(=O)[C@H](Cc2cccc3ccccc23)NC(=O)[C@@H](NC(=O)[C@H](CCCCN)NC(=O)[C@@H](NC(=O)[C@H](CC(N)=O)NC(=O)[C@@H](NC(=O)[C@@H](NC(=O)[C@@H](NC(=O)CN)C(C)C)[C@@H](C)CC)[C@@H](C)CC)C(C)C)CSSC[C@@H]2NC(=O)[C@H](CCCCN)NC(=O)CNC(=O)[C@H](Cc3ccccc3)NC(=O)[C@H](CCCNC(=N)N)NC(=O)[C@H](CCSC)NC(=O)CNC(=O)[C@H](C)NC(=O)[C@H](CCCCN)NC(=O)[C@H](CCCCN)NC(=O)[C@@H]3CSSC[C@@H](C(=O)N[C@H](C(=O)N4CCC[C@H]4C(=O)N[C@@H](CCCCN)C(=O)O)[C@@H](C)O)NC(=O)[C@H](Cc4c[nH]cn4)NC(=O)[C@H](CSSC[C@H](NC(=O)[C@H](CCC(N)=O)NC(=O)[C@H](CCCNC(=N)N)NC(=O)[C@H](CO)NC1=O)C(=O)N[C@@H](CC(C)C)C(=O)N[C@@H](CCC(=O)O)C(=O)N1CCC[C@H]1C(=O)N3)NC(=O)[C@H](CCCCN)NC(=O)CNC(=O)[C@H](CC(N)=O)NC(=O)[C@H](CCSC)NC2=O [K9Nal] (H-GVIINVKC[1Nal]ISRQCLEPCKKAGMRFGKCMNGKCHCTPK-OH; disulfide 8-28, 14-33, 18-35)	0.00292 nM	0.0658 nM
CC[C@H](C)[C@@H]1NC(=O)[C@H](CCCNC(=N)N)NC(=O)[C@@H](NC(=O)[C@H](CCCCN)NC(=O)[C@@H](NC(=O)[C@H](CC(N)=O)NC(=O)[C@@H](NC(=O)[C@@H](NC(=O)[C@@H](NC(=O)CN)C(C)C)[C@@H](C)CC)[C@@H](C)CC)C(C)C)CSSC[C@@H]2NC(=O)[C@H](CCCCN)NC(=O)CNC(=O)[C@H](Cc3ccccc3)NC(=O)[C@H](CCCNC(=N)N)NC(=O)[C@H](CCSC)NC(=O)CNC(=O)[C@H](C)NC(=O)[C@H](CCCCN)NC(=O)[C@H](CCCCN)NC(=O)[C@@H]3CSSC[C@@H](C(=O)N[C@H](C(=O)N4CCC[C@H]4C(=O)N[C@@H](CCCCN)C(=O)O)[C@@H](C)O)NC(=O)[C@H](Cc4c[nH]cn4)NC(=O)[C@H](CSSC[C@H](NC(=O)[C@H](CCC(N)=O)NC(=O)[C@H](CCCNC(=N)N)NC(=O)[C@H](CO)NC1=O)C(=O)N[C@@H](CC(C)C)C(=O)N[C@@H](CCC(=O)O)C(=O)N1CCC[C@H]1C(=O)N3)NC(=O)[C@H](CCCCN)NC(=O)CNC(=O)[C@H](CC(N)=O)NC(=O)[C@H](CCSC)NC2=O [K9R] (H-GVIINVKCRISRQCLEPCKKAGMRFGKCMNGKCHCTPK-OH; disulfide 8-28, 14-33, 18-35)	0.00201 nM	0.012 nM
CC[C@H](C)[C@@H]1NC(=O)[C@H](CCCCN)NC(=O)[C@@H](NC(=O)[C@H](CCCCN)NC(=O)[C@@H](NC(=O)[C@H](CC(N)=O)NC(=O)[C@@H](NC(=O)[C@@H](NC(=O)[C@@H](NC(=O)CN)C(C)C)[C@@H](C)CC)[C@@H](C)CC)C(C)C)CSSC[C@@H]2NC(=O)[C@H](CCCCN)NC(=O)CNC(=O)[C@H](Cc3ccccc3)NC(=O)[C@H](CCCNC(=N)N)NC(=O)[C@H](CCSC)NC(=O)CNC(=O)[C@H](C)NC(=O)[C@H](CCCCN)NC(=O)[C@H](C)NC(=O)[C@@H]3CSSC[C@@H](C(=O)N[C@H](C(=O)N4CCC[C@H]4C(=O)N[C@@H](CCCCN)C(=O)O)[C@@H](C)O)NC(=O)[C@H](Cc4c[nH]cn4)NC(=O)[C@H](CSSC[C@H](NC(=O)[C@H](CCC(N)=O)NC(=O)[C@H](CCCNC(=N)N)NC(=O)[C@H](CO)NC1=O)C(=O)N[C@@H](CC(C)C)C(=O)N[C@@H](CCC(=O)O)C(=O)N1CCC[C@H]1C(=O)N3)NC(=O)[C@H](CCCCN)NC(=O)CNC(=O)[C@H](CC(N)=O)NC(=O)[C@H](CCSC)NC2=O [K19A] (H-GVIINVKCKISRQCLEPCAKAGMRFGKCMNGKCHCTPK-OH; disulfide 8-28, 14-33, 18-35)	0.0168 nM	0.21 nM
CC[C@H](C)[C@@H]1NC(=O)[C@H](CCCCN)NC(=O)[C@@H](NC(=O)[C@H](CCCCN)NC(=O)[C@@H](NC(=O)[C@H](CC(N)=O)NC(=O)[C@@H](NC(=O)[C@@H](NC(=O)[C@@H](NC(=O)CN)C(C)C)[C@@H](C)CC)[C@@H](C)CC)C(C)C)CSSC[C@@H]2NC(=O)[C@H](CCCCN)NC(=O)CNC(=O)[C@H](Cc3ccccc3)NC(=O)[C@H](CCCNC(=N)N)NC(=O)[C@H](CCSC)NC(=O)CNC(=O)[C@H](C)NC(=O)[C@H](CCCCN)NC(=O)[C@H](CCC(=O)O)NC(=O)[C@@H]3CSSC[C@@H](C(=O)N[C@H](C(=O)N4CCC[C@H]4C(=O)N[C@@H](CCCCN)C(=O)O)[C@@H](C)O)NC(=O)[C@H](Cc4c[nH]cn4)NC(=O)[C@H](CSSC[C@H](NC(=O)[C@H](CCC(N)=O)NC(=O)[C@H](CCCNC(=N)N)NC(=O)[C@H](CO)NC1=O)C(=O)N[C@@H](CC(C)C)C(=O)N[C@@H](CCC(=O)O)C(=O)N1CCC[C@H]1C(=O)N3)NC(=O)[C@H](CCCCN)NC(=O)CNC(=O)[C@H](CC(N)=O)NC(=O)[C@H](CCSC)NC2=O [K19E] (H-GVIINVKCKISRQCLEPCEKAGMRFGKCMNGKCHCTPK-OH; disulfide 8-28, 14-33, 18-35)	0.0137 nM	0.0235 nM
CC[C@H](C)[C@@H]1NC(=O)[C@H](CCCCN)NC(=O)[C@@H](NC(=O)[C@H](CCCCN)NC(=O)[C@@H](NC(=O)[C@H](CC(N)=O)NC(=O)[C@@H](NC(=O)[C@@H](NC(=O)[C@@H](NC(=O)CN)C(C)C)[C@@H](C)CC)[C@@H](C)CC)C(C)C)CSSC[C@@H]2NC(=O)[C@H](CCCCN)NC(=O)CNC(=O)[C@H](Cc3ccccc3)NC(=O)[C@H](CCCNC(=N)N)NC(=O)[C@H](CCSC)NC(=O)CNC(=O)[C@H](C)NC(=O)[C@H](CCCCN)NC(=O)[C@H](CCCNC(=N)N)NC(=O)[C@@H]3CSSC[C@@H](C(=O)N[C@H](C(=O)N4CCC[C@H]4C(=O)N[C@@H](CCCCN)C(=O)O)[C@@H](C)O)NC(=O)[C@H](Cc4c[nH]cn4)NC(=O)[C@H](CSSC[C@H](NC(=O)[C@H](CCC(N)=O)NC(=O)[C@H](CCCNC(=N)N)NC(=O)[C@H](CO)NC1=O)C(=O)N[C@@H](CC(C)C)C(=O)N[C@@H](CCC(=O)O)C(=O)N1CCC[C@H]1C(=O)N3)NC(=O)[C@H](CCCCN)NC(=O)CNC(=O)[C@H](CC(N)=O)NC(=O)[C@H](CCSC)NC2=O [K19R] (H-GVIINVKCKISRQCLEPCRKAGMRFGKCMNGKCHCTPK-OH; disulfide 8-28, 14-33, 18-35)	0.00241 nM	0.0126 nM
CC[C@H](C)[C@@H]1NC(=O)[C@H](CCCCN)NC(=O)[C@@H](NC(=O)[C@H](CCCCN)NC(=O)[C@@H](NC(=O)[C@H](CC(N)=O)NC(=O)[C@@H](NC(=O)[C@@H](NC(=O)[C@@H](NC(=O)CN)C(C)C)[C@@H](C)CC)[C@@H](C)CC)C(C)C)CSSC[C@@H]2NC(=O)[C@H](CCCCN)NC(=O)CNC(=O)[C@H](Cc3ccccc3)NC(=O)[C@H](CCCNC(=N)N)NC(=O)[C@H](CCSC)NC(=O)CNC(=O)[C@H](C)NC(=O)[C@H](C)NC(=O)[C@H](CCCCN)NC(=O)[C@@H]3CSSC[C@@H](C(=O)N[C@H](C(=O)N4CCC[C@H]4C(=O)N[C@@H](CCCCN)C(=O)O)[C@@H](C)O)NC(=O)[C@H](Cc4c[nH]cn4)NC(=O)[C@H](CSSC[C@H](NC(=O)[C@H](CCC(N)=O)NC(=O)[C@H](CCCNC(=N)N)NC(=O)[C@H](CO)NC1=O)C(=O)N[C@@H](CC(C)C)C(=O)N[C@@H](CCC(=O)O)C(=O)N1CCC[C@H]1C(=O)N3)NC(=O)[C@H](CCCCN)NC(=O)CNC(=O)[C@H](CC(N)=O)NC(=O)[C@H](CCSC)NC2=O [K20A] (H-GVIINVKCKISRQCLEPCKAAGMRFGKCMNGKCHCTPK-OH; disulfide 8-28, 14-33, 18-35)	0.185 nM	1.04 nM
